Like-named read-outs stand apart in the source and are kept apart here.

Common to all, as to format: biochemical
The target in assay [1] is T1, human Yes1 enzyme (Homo sapiens, UniProt P07947).
T1 construct: made in house
As to the kind of experiment: Yes1 enzyme inhibitory activity (time-resolved fluorometry, biotinylated peptide phosphorylation). To be noted: read-out: YES_IC50. As to the method:
(§1) 1. Yes1 Enzyme Inhibitory Activity Yes1 inhibitory activity was determined based on activity of inhibiting phosphorylation reaction of a biotinylated peptide (EGPWLEEEEEAYGWMDF) using a human Yes1 enzyme prepared using a baculovirus expression system. The phosphorylated biotinylated peptide was detected by time-resolved fluorometry using an anti-phosphorylated tyrosine antibody conjugated to europium cryptate, and streptavidin conjugated to XL665, an allophycocyanin derivative. The 50% inhibitory concentration (IC50) was calculated from the inhibition rate relative to the control group without containing the test substance.

For assay [2], the target named is T2, human Src enzyme (Homo sapiens, UniProt P12931).
T2 construct: purchased Carna Biosciences, Inc. 08-173
T2 sequence (P12931 whole entry): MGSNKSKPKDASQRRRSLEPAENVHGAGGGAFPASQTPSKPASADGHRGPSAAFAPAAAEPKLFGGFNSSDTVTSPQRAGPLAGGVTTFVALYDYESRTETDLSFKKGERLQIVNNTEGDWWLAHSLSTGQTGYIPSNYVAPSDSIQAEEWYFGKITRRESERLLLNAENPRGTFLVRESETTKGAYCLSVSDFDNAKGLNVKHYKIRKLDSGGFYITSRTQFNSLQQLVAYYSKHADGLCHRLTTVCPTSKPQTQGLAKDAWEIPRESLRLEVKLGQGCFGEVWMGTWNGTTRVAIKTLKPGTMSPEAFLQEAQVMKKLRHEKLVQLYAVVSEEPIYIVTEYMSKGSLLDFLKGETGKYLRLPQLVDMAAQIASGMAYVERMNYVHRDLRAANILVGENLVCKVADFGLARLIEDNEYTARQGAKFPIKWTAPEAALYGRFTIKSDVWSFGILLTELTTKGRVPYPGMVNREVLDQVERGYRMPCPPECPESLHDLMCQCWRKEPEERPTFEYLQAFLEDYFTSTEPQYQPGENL
As to the kind of experiment: Src enzyme inhibitory activity (time-resolved fluorometry, biotinylated peptide phosphorylation). Conditions: read-out: SRC_IC50. As to the method:
as §1, with “2. Src” for “1. Yes1”, “Src” for “Yes1”, “(manufactured by Carna Biosciences, Inc., cat 08-173).” for “prepared using a baculovirus expression system.”

The target of assay [3] is T3, human Lck enzyme (Homo sapiens, UniProt P06239).
T3 construct: purchased Carna Biosciences, Inc. 08-170
T3 sequence (P06239 whole entry): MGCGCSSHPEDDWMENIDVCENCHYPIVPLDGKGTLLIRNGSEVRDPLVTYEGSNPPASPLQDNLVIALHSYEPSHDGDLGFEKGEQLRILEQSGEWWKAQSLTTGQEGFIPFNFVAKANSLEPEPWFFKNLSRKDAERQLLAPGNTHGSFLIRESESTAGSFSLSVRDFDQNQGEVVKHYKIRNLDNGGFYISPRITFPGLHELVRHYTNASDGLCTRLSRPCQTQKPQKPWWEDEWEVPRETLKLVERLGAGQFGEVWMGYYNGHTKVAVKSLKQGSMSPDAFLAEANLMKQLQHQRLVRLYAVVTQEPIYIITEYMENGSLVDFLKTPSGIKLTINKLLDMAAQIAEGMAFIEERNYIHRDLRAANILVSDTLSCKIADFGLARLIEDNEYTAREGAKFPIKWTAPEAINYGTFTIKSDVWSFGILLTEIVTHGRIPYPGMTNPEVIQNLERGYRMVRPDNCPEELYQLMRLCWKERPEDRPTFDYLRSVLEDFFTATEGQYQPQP
Nature of the assay: Lck enzyme inhibitory activity (time-resolved fluorometry, biotinylated peptide phosphorylation). Conditions: read-out: LCK_IC50. As to the method:
as §1, with “3. Lck” for “1. Yes1”, “Lck” for “Yes1”, “(manufactured by Carna Biosciences, Inc., cat 08-170).” for “prepared using a baculovirus expression system.”

The mark [4] stands for this setting: biotinylated peptide phosphorylation.

T1 sequence (P07947 whole entry): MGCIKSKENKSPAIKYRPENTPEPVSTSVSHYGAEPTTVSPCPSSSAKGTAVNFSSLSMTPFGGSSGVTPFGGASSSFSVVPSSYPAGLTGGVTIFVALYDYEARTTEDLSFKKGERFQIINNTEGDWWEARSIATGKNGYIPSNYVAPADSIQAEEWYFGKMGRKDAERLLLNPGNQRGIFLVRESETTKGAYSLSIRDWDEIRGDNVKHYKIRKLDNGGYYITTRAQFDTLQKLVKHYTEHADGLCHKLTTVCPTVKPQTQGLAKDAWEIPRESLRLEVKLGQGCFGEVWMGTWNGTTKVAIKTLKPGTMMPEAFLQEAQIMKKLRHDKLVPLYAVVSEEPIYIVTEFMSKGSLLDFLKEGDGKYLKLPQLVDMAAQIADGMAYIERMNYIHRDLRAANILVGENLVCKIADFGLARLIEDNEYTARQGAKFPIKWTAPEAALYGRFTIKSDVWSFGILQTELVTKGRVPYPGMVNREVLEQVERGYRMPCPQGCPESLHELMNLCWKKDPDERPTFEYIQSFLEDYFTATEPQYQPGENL

On to `Cc1cc2cc(C(=O)c3cnn(-c4ccc(Oc5ccccc5F)cc4C)c3N)[nH]c2cc1N1CCC(N2CCOCC2)CC1` [Example 5-1-077, [5-amino-1-[4-(2-fluorophenoxy)-2-methylphenyl]pyrazol-4-yl]-[5-methyl-6-(4-morpholin-4-ylpiperidin-1-yl)-1H-indol-2-yl] methanone], for which the IC50 worked out at 1 nM in assay [1], 42 nM in assay [2] and 7.1 nM in assay [3].
For `Cc1cc(Oc2ccc(F)cc2)ncc1-n1ncc(C(=O)c2cc3cc(F)c(NS(=O)(=O)C4CC4)cc3[nH]2)c1N` [Example 5-1-046, N-[2-[5-amino-1-[6-(4-fluorophenoxy)-4-methylpyridin-3-yl]pyrazole-4-carbonyl]-5-fluoro-1H-indol-6-yl]cyclopropanesulfonamide] the same measures were 7.9 nM, 160 nM and 110 nM.
For the compound `Cc1cc(-n2ncc(C(=O)c3cc4cc(OC5CCN(C6CS(=O)(=O)C6)CC5)c(-c5ccccc5C)cc4[nH]3)c2N)ccc1Oc1ccccc1F` [Example 5-1-336, [5-amino-1-[4-(2-fluorophenoxy)-3-methylphenyl]pyrazol-4-yl]-[5-[1-(1,1-dioxothietan-3-yl)piperidin-4-yl]oxy-6-(2-methylphenyl)-1H-indol-2-yl]methanone], the figures for the IC50 in assay [1] and in assay [3] were 4.2 nM and 240 nM, respectively.
For `Cc1cc(-n2ncc(C(=O)c3cc4cc(F)c(NS(C)(=O)=O)cc4[nH]3)c2N)cnc1Oc1c(F)cccc1Cl` [Example 5-1-043, N-[2-[5-amino-1-[6-(2-chloro-6-fluorophenoxy)-5-methylpyridin-3-yl]pyrazole-4-carbonyl]-5-fluoro-1H-indol-6-yl] methanesulfonamide] the same measures were 38 nM and 2600 nM.
For the compound `Cc1cc(-n2ncc(C(=O)c3cc4cc(C)c(N5C(=O)NC(C)(C(F)(F)F)C5=O)cc4[nH]3)c2N)ccc1Oc1ccccc1F` (stereo not drawn) [Example 5-1-472, 3-[2-[5-amino-1-[4-(2-fluorophenoxy)-3-methylphenyl]pyrazole-4-carbonyl]-5-methyl-1H-indol-6-yl]-5-methyl-5-(trifluoromethyl) imidazolidine-2,4-dione], the IC50 in assay [1] (setting [4]) turned out to be 40 nM; in assay [3] (setting [4]), 710 nM.
In the case of `Cc1cc2cc(C(=O)c3cnn(-c4cc(C)c(Oc5ccccc5F)cc4F)c3N)[nH]c2cc1NS(C)(=O)=O` [Example 5-1-206, N-[2-[5-amino-1-[2-fluoro-4-(2-fluorophenoxy)-5-methylphenyl]pyrazole-4-carbonyl]-5-methyl-1H-indol-6-yl]methanesulfonamide], the IC50 in assay [1] was found to be 9.1 nM.
Turning to `Cc1cc(-n2ncc(C(=O)c3cc4cc(C)c(N5C(=O)NC6(CCCC6)C5=O)cc4[nH]3)c2N)ccc1Oc1ccccc1F` [Example 5-1-474, 3-[2-[5-amino-1-[4-(2-fluorophenoxy)-3-methylphenyl]pyrazole-4-carbonyl]-5-methyl-1H-indol-6-yl]-1,3-diazaspiro[4.4]nonane-2,4-dione], the values for the IC50 in assay [1] (setting [4]) and in assay [3] (setting [4]) were 27 nM and 650 nM, respectively.
Regarding `Cc1cc(-n2ncc(C(=O)c3cc4cc(OCC(F)F)c(-c5cccs5)cc4[nH]3)c2N)ccc1Oc1ccccc1F` [Example 5-1-256, [5-amino-1-[4-(2-fluorophenoxy)-3-methylphenyl]pyrazol-4-yl]-[5-(2,2-difluoroethoxy)-6-thiophen-2-yl-1H-indol-2-yl] methanone], the IC50 in assay [1] amounted to 120 nM.
For the compound `Cc1cc(-n2ncc(C(=O)c3cc4cc(OC5CCN(C6CS(=O)(=O)C6)CC5)c(-c5ccccc5C(F)(F)F)cc4[nH]3)c2N)ccc1Oc1ccccc1F` [Example 5-1-386, (5-amino-1-(4-(2-fluorophenoxy)-3-methylphenyl)-1H-pyrazol-4-yl)(5-((1-(1,1-dioxidothietan-3-yl)piperidin-4-yl)oxy)-6-(2-(trifluoromethyl)phenyl)-1H-indol-2-yl)methanone], the results for the IC50 in assay [1] and in assay [3] were 3.9 nM and 1000 nM, respectively.
For `Cc1cc(-n2ncc(C(=O)c3cc4cc(OC5CCN(C6CS(=O)(=O)C6)CC5)c(-c5ccccc5Cl)cc4[nH]3)c2N)ccc1Oc1ccccc1F` [Example 5-1-289, [5-amino-1-[4-(2-fluorophenoxy)-3-methylphenyl]pyrazol-4-yl]-[6-(2-chlorophenyl)-5-[1-(1,1-dioxothietan-3-yl)piperidin-4-yl]oxy-1H-indol-2-yl]methanone], in that order: 3.4 nM and 400 nM.
With `Cc1cc(-n2ncc(C(=O)c3cc4cc(F)c(NS(=O)(=O)C5CCOCC5)cc4[nH]3)c2N)ccc1Oc1ccccc1F` [Example 5-1-493, N-[2-[5-amino-1-[4-(2-fluorophenoxy)-3-methylphenyl]pyrazole-4-carbonyl]-5-fluoro-1H-indol-6-yl]oxane-4-sulfonamide], the IC50 is 5.3 nM in assay [1] (setting [4]) and 3000 nM in assay [3] (setting [4]).
In the case of `Cc1cc(-n2ncc(C(=O)c3cc4cc(F)c(NS(C)(=O)=O)cc4[nH]3)c2N)cnc1Oc1cc(F)cc(F)c1` [Example 5-1-045, N-[2-[5-amino-1-[6-(3,5-difluorophenoxy)-5-methylpyridin-3-yl]pyrazole-4-carbonyl]-5-fluoro-1H-indol-6-yl]methanesulfonamide], the IC50 in assay [1] is 210 nM; in assay [3], 4400 nM.
For `Cc1cc(-n2ncc(C(=O)c3cc4cc(OC(F)F)c(Br)cc4[nH]3)c2N)ccc1Oc1ccccc1F` [Example 5-1-152, [5-amino-1-[4-(2-fluorophenoxy)-3-methylphenyl]pyrazol-4-yl]-[6-bromo-5-(difluoromethoxy)-1H-indol-2-yl]methanone] the same measures were 7.3 nM and 7800 nM.
For `Cc1cc2cc(C(=O)c3cnn(-c4ccc(Oc5cccc(F)c5)c(C)c4)c3N)[nH]c2cc1NS(C)(=O)=O` [Example 5-1-211, N-[2-[5-amino-1-[4-(3-fluorophenoxy)-3-methylphenyl]pyrazole-4-carbonyl]-5-methyl-1H-indol-6-yl]methanesulfonamide], in that order: 26 nM and 4400 nM.
For `Cc1cc(-n2ncc(C(=O)c3cc4cc(OCC(F)F)c(Br)cc4[nH]3)c2N)ccc1Oc1ccccc1F` [Example 5-1-150, [5-amino-1-[4-(2-fluorophenoxy)-3-methylphenyl]pyrazol-4-yl]-[6-bromo-5-(2,2-difluoroethoxy)-1H-indol-2-yl]methanone], in that order: 4.8 nM and 320 nM.
`Cc1cc(-n2ncc(C(=O)c3cc4cc(F)c(NS(C)(=O)=O)cc4[nH]3)c2N)cnc1Oc1ccccc1Cl` [Example 5-1-041, N-[2-[5-amino-1-[6-(2-chlorophenoxy)-5-methylpyridin-3-yl]pyrazole-4-carbonyl]-5-fluoro-1H-indol-6-yl]methanesulfonamide]: the IC50 was 93 nM in assay [1] and 2000 nM in assay [3].
For the compound `Cc1cc(-n2ncc(C(=O)c3cc4cc(C)c(N5C(=O)NC6(CCCCC6)C5=O)cc4[nH]3)c2N)ccc1Oc1ccccc1F` [Example 5-1-470, 3-[2-[5-amino-1-[4-(2-fluorophenoxy)-3-methylphenyl]pyrazole-4-carbonyl]-5-methyl-1H-indol-6-yl]-1,3-diazaspiro[4.5]decane-2,4-dione], the results for the IC50 in assay [1] (setting [4]) and in assay [3] (setting [4]) were 31 nM and 870 nM, respectively.
For `Cc1cc(-n2ncc(C(=O)c3cc4cc(C)c(N5C(=O)NC6(CCN(C(=O)OC(C)(C)C)CC6)C5=O)cc4[nH]3)c2N)ccc1Oc1ccccc1F` [Example 5-1-471, tert-Butyl 3-[2-[5-amino-1-[4-(2-fluorophenoxy)-3-methylphenyl]pyrazole-4-carbonyl]-5-methyl-1H-indol-6-yl]-2,4-dioxo-1,3,8-triazaspiro[4.5]decane-8-carboxylate], in that order: 81 nM and 980 nM.
With `Cc1cc(-n2ncc(C(=O)c3cc4cc(F)c(NS(C)(=O)=O)cc4[nH]3)c2N)cnc1Oc1cccc(Cl)c1` [Example 5-1-042, N-[2-[5-amino-1-[6-(3-chlorophenoxy)-5-methylpyridin-3-yl]pyrazole-4-carbonyl]-5-fluoro-1H-indol-6-yl]methanesulfonamide], the IC50 in assay [1] came to 270 nM; in assay [3], 1900 nM.
For `Cc1cc(-n2ncc(C(=O)c3cc4cc(F)c(NS(C)(=O)=O)cc4[nH]3)c2N)cnc1Oc1cccc(F)c1F` [Example 5-1-044, N-[2-[5-amino-1-[6-(2,3-difluorophenoxy)-5-methylpyridin-3-yl]pyrazole-4-carbonyl]-5-fluoro-1H-indol-6-yl]methanesulfonamide] the same measures were 52 nM and 2700 nM.
For `Cc1cc2cc(C(=O)c3cnn(-c4ccc(Oc5ccccc5F)c(C)c4)c3N)[nH]c2cc1NS(C)(=O)=O` [Example 5-1-307, N-[2-[5-amino-1-[4-(2-fluorophenoxy)-3-methylphenyl]pyrazole-4-carbonyl]-5-methyl-1H-indol-6-yl]methanesulfonamide], in that order: 26 nM and 720 nM.

The record behind these values is patent publication US10479780B2, “Aminopyrazole derivatives” (Chugai Seiyaku Kabushiki Kaisha, priority 2015, dated 2019).
